Measurements: patent US20100069341A1, “TETRAHYDRO-PYRANOPYRAZOLE CANNABINOID MODULATORS” (priority 2005, published 2010)
Where two headings read alike, the source gives them in different places.

Legend:
[1] = molecular target: T1, Cannabinoid CB1 Receptor (Homo sapiens, UniProt P21554); experiment: Binding assay, cannabinoid CB1 receptor ([3H]-CP-55,940 displacement, SK-N-MC cell membranes); conditions: for inhibition at 0.2 µM: read-out: Cannabinoid CB1 Receptor Binding, percent inhibition
T1 construct: expressed in transfected cells; semi-purified membrane pellet
T1 sequence (P21554 whole entry): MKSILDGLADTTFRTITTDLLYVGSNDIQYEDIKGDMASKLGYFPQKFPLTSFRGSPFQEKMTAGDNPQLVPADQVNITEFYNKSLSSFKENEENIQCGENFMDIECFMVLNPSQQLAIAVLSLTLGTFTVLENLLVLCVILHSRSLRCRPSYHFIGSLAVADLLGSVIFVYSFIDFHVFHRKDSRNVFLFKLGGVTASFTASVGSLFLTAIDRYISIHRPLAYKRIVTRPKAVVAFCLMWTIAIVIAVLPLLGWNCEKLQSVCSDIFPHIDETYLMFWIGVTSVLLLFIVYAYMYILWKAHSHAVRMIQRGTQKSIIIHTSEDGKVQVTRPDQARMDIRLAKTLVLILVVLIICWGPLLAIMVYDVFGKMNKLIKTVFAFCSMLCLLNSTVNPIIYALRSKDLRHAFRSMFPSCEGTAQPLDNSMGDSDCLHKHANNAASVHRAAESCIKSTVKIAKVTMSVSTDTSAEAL

[2] = molecular target: T2, Cannabinoid CB2 Receptor (Homo sapiens, UniProt P34972); experiment: Binding assay, cannabinoid CB2 receptor ([3H]-CP-55,940 displacement, SK-N-MC cell membranes); conditions: test concentration of 0.2 μM, human CB2 in SK-N-MC membranes; for inhibition at 0.2 µM: read-out: Cannabinoid CB2 Receptor Binding, percent inhibition
T2 construct: expressed in transfected cells; semi-purified membrane pellet
T2 sequence (P34972 whole entry): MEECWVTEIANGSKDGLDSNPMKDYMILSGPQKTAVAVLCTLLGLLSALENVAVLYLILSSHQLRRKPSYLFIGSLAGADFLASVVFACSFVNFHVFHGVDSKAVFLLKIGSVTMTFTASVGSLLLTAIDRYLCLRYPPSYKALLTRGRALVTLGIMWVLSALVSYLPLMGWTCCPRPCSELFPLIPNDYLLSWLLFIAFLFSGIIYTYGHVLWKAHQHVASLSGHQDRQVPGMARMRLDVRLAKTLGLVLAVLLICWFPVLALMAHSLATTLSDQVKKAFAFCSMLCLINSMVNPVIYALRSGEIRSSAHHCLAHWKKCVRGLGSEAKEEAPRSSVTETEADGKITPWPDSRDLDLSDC
How it was run: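 Membranes from SK-N-MC cells stably expressing human CB2 were incubated 90 min at 30 °C with 0.2 nM [3H]-CP-55,940 in Tris buffer, pH 7.5, with BSA; 10 uM WIN 55,212 defined non-specific binding. Filter-bound counts gave IC50 by linear regression, or % inhibition at 0.2 μM.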

[3] = test concentration of 0.2 μM, human CB1 in SK-N-MC membranes

| Molecule | inhibition at 0.2 µM [2] [%] | inhibition at 0.2 µM [1, 3] [%] | further results |
| --- | --- | --- | --- |
| C[C@@H](NC(=O)c1nn(-c2ccc(Cl)cc2Cl)c2c1COC/C2=C\c1ccc(Cl)o1)C1CCCCC1 [Cpd 62, (7Z)-7-(5-chloro-furan-2-ylmethylene)-1-(2,4-dichloro-phenyl)-1,4,6,7-tetrahydro-pyrano[4,3-c]pyrazole-3-carboxylic acid [(R)-1-cyclohexyl-ethyl]-amide] | 17 |  | IC50 [1]: 30 nM; inhibition at 0.2 µM [1]: 74% |
| C[C@H](NC(=O)c1nn(-c2ccc(Cl)cc2Cl)c2c1COC/C2=C\c1ccc(Cl)o1)C1CCCCC1 [Cpd 63, (7Z)-7-(5-chloro-furan-2-ylmethylene)-1-(2,4-dichloro-phenyl)-1,4,6,7-tetrahydro-pyrano[4,3-c]pyrazole-3-carboxylic acid [(S)-1-cyclohexyl-ethyl]-amide] | 10 |  | inhibition at 0.2 µM [1]: 25% |
| O=C(NN1CCCCC1)c1nn(-c2ccc(Cl)cc2Cl)c2c1COC/C2=C\c1ccc(Cl)o1 [Cpd 64, (7Z)-7-(5-chloro-furan-2-ylmethylene)-1-(2,4-dichloro-phenyl)-1,4,6,7-tetrahydro-pyrano[4,3-c]pyrazole-3-carboxylic acid piperidin-1-ylamide] | 12 | 62 |  |
| O=C(NN1CCCCCC1)c1nn(-c2ccc(Cl)cc2Cl)c2c1COC/C2=C\c1ccc(Cl)o1 [Cpd 65, (7Z)-7-(5-chloro-furan-2-ylmethylene)-1-(2,4-dichloro-phenyl)-1,4,6,7-tetrahydro-pyrano[4,3-c]pyrazole-3-carboxylic acid azepan-1-ylamide] | 9 | 71 | IC50 [1]: 70 nM |
| C[C@@H](NC(=O)c1nn(-c2ccc(Cl)cc2Cl)c2c1COC/C2=C\c1ccc(Cl)o1)c1ccccn1 [Cpd 66, (7Z)-7-(5-chloro-furan-2-ylmethylene)-1-(2,4-dichloro-phenyl)-1,4,6,7-tetrahydro-pyrano[4,3-c]pyrazole-3-carboxylic acid [(R)-1-pyridin-2-yl-ethyl]-amide] | 10 | 58 |  |
| CC(NC(=O)c1nn(-c2ccc(Cl)cc2Cl)c2c1COC/C2=C\c1ccc(Cl)o1)c1ccccn1 (stereo not drawn) [Cpd 67, (7Z)-7-(5-chloro-furan-2-ylmethylene)-1-(2,4-dichloro-phenyl)-1,4,6,7-tetrahydro-pyrano[4,3-c]pyrazole-3-carboxylic acid (1-pyridin-2-yl-ethyl)-amide] | 7 | 40 |  |
| CC1CCCC(C)N1NC(=O)c1nn(-c2ccc(Cl)cc2Cl)c2c1COC/C2=C\c1ccc(Cl)o1 (stereo not drawn) [Cpd 68, (7Z)-7-(5-chloro-furan-2-ylmethylene)-1-(2,4-dichloro-phenyl)-1,4,6,7-tetrahydro-pyrano[4,3-c]pyrazole-3-carboxylic acid (2,6-dimethyl-piperidin-1-yl)-amide] | 22 | 38 |  |
| C[C@@H](NC(=O)c1nn(-c2ccc(Cl)cc2Cl)c2c1COC/C2=C\c1ccc(Cl)o1)c1ccccc1 [Cpd 69, (7Z)-7-(5-chloro-furan-2-ylmethylene)-1-(2,4-dichloro-phenyl)-1,4,6,7-tetrahydro-pyrano[4,3-c]pyrazole-3-carboxylic acid [(R)-1-phenyl-ethyl]-amide] | 15 | 73 | IC50 [1]: 50 nM |
| C[C@H](NC(=O)c1nn(-c2ccc(Cl)cc2Cl)c2c1COC/C2=C\c1ccc(Cl)o1)c1ccccc1 [Cpd 70, (7Z)-7-(5-chloro-furan-2-ylmethylene)-1-(2,4-dichloro-phenyl)-1,4,6,7-tetrahydro-pyrano[4,3-c]pyrazole-3-carboxylic acid [(S)-1-phenyl-ethyl]-amide] | 15 | 41 |  |
| O=C(NN1CC2CCCC2C1)c1nn(-c2ccc(Cl)cc2Cl)c2c1COC/C2=C\c1ccc(Cl)o1 (stereo not drawn) [Cpd 71, (7Z)-7-(5-chloro-furan-2-ylmethylene)-1-(2,4-dichloro-phenyl)-1,4,6,7-tetrahydro-pyrano[4,3-c]pyrazole-3-carboxylic acid (hexahydro-cyclopenta[c]pyrrol-2-yl)-amide] | 17 | 71 | IC50 [1]: 40 nM |
| O=C(NN1CCCC1)c1nn(-c2ccc(Cl)cc2Cl)c2c1COC/C2=C\c1ccc(Cl)o1 [Cpd 72, (7Z)-7-(5-chloro-furan-2-ylmethylene)-1-(2,4-dichloro-phenyl)-1,4,6,7-tetrahydro-pyrano[4,3-c]pyrazole-3-carboxylic acid pyrrolidin-1-ylamide] | 8 | 48 |  |
| COC[C@@H]1CCCN1NC(=O)c1nn(-c2ccc(Cl)cc2Cl)c2c1COC/C2=C\c1ccc(Cl)s1 [Cpd 73, (7Z)-7-(5-chloro-thiophen-2-ylmethylene)-1-(2,4-dichloro-phenyl)-1,4,6,7-tetrahydro-pyrano[4,3-c]pyrazole-3-carboxylic acid [(2S)-2-methoxymethyl-pyrrolidin-1-yl]-amide] | 11 | 57 |  |
| COC[C@H]1CCCN1NC(=O)c1nn(-c2ccc(Cl)cc2Cl)c2c1COC/C2=C\c1ccc(Cl)s1 [Cpd 74, (7Z)-7-(5-chloro-thiophen-2-ylmethylene)-1-(2,4-dichloro-phenyl)-1,4,6,7-tetrahydro-pyrano[4,3-c]pyrazole-3-carboxylic acid [(2R)-2-methoxymethyl-pyrrolidin-1-yl]-amide] | 12 | 65 |  |
| COC[C@H]1CCCN1NC(=O)c1nn(-c2ccc(Cl)cc2Cl)c2c1COC/C2=C\c1ccc(F)cc1 [Cpd 75, (7Z)-1-(2,4-dichloro-phenyl)-7-(4-fluoro-benzylidene)-1,4,6,7-tetrahydro-pyrano[4,3-c]pyrazole-3-carboxylic acid [(2R)-2-methoxymethyl-pyrroldin-1-yl]-amide] | 15 | 68 |  |
| (7Z)-7-(5-chloro-thiophen-2-ylmethylene)-1-(2,4-dichloro-phenyl)-1,4,6,7-tetrahydro-pyrano[4,3-c]pyrazole-3-carboxylic acid [(2S)-2-benzyl-pentyl]-amide [Cpd 59] |  |  | Cannabinoid CB1 Receptor Binding, percent inhibition [1, 3]: 38%; Cannabinoid CB2 Receptor Binding, percent inhibition [2]: 17% |
| (7Z)-azepan-1-yl-[1-(2,4-dichloro-phenyl)-7-(4-fluoro-benzylidene)-1,4,6,7-tetrahydro-pyrano[4,3-c]pyrazol-3-yl]-methanone [Cpd 28] |  |  | IC50 ([1]; human CB1 in SK-N-MC membranes, radioligand CP-55,940 0.2 nM, calculated by linear regression, read-out: Cannabinoid CB1 Receptor Binding, IC50 binding value): 9 nM; Cannabinoid CB1 Receptor Binding, percent inhibition [1, 3]: 88%; Cannabinoid CB2 Receptor Binding, percent inhibition [2]: 10% |
| azepan-1-yl-[1-(2,4-dichloro-phenyl)-7-(4-fluoro-benzyl)-1,4,6,7-tetrahydro-pyrano[4,3-c]pyrazol-3-yl]-methanone [Cpd 25] |  |  | Cannabinoid CB1 Receptor Binding, percent inhibition [1, 3]: 50%; Cannabinoid CB2 Receptor Binding, percent inhibition [2]: 0% |
